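Cells were grown in 96-well plates and exposed to each compound for 48 hours at five concentrations; endpoints were interpolated linearly between bracketing concentrations, or set to the highest concentration if not reached. GI50: concentration for 50% inhibition of growth. TGI denotes the concentration required for complete inhibition of growth.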
Tests used:
Test in all cases: NCI anticancer screen, dose series, 48 h
OVCAR-3 ovarian = system: OVCAR-3 ovarian
ACHN renal = system: ACHN renal
MOLT-4 leukemia = system: MOLT-4 leukemia
SNB-75 CNS = system: SNB-75 CNS
MDA-MB-435 = system: MDA-MB-435
SK-MEL-28 melanoma = system: SK-MEL-28 melanoma
SK-MEL-5 melanoma = system: SK-MEL-5 melanoma
BT-549 breast = system: BT-549 breast
SF-539 CNS = system: SF-539 CNS
EKVX NSCLC = system: EKVX NSCLC

NC(N)=NC(N)=NCCCc1ccco1
GI50 (OVCAR-3 ovarian): 114 µM | TGI (OVCAR-3 ovarian): 329 µM | GI50 (ACHN renal): > 500 µM | TGI (ACHN renal): > 500 µM | GI50 (MOLT-4 leukemia): 28.3 µM | TGI (MOLT-4 leukemia): 176 µM | GI50 (SNB-75 CNS): 83.3 µM | TGI (SNB-75 CNS): 245 µM | GI50 (MDA-MB-435): 21.5 µM | TGI (MDA-MB-435): 82.4 µM | GI50 (SK-MEL-28 melanoma): 23.1 µM | TGI (SK-MEL-28 melanoma): 91.3 µM | GI50 (SK-MEL-5 melanoma): > 500 µM | TGI (SK-MEL-5 melanoma): > 500 µM | GI50 (BT-549 breast): 39.6 µM | TGI (BT-549 breast): 152 µM | GI50 (SF-539 CNS): 108 µM | TGI (SF-539 CNS): 268 µM

N#C/C(=N\Nc1ccccc1)C(=O)Nc1cc(-c2ccccc2)nn1-c1ccccc1
GI50 (OVCAR-3 ovarian): 3.24 µM | TGI (OVCAR-3 ovarian): 33.2 µM | GI50 (ACHN renal): 2.98 µM | TGI (ACHN renal): > 100 µM | GI50 (MOLT-4 leukemia): 3.75 µM | TGI (MOLT-4 leukemia): > 100 µM | GI50 (MDA-MB-435): 3.05 µM | TGI (MDA-MB-435): > 100 µM | GI50 (SK-MEL-28 melanoma): 3.78 µM | TGI (SK-MEL-28 melanoma): > 100 µM | GI50 (SK-MEL-5 melanoma): 1.54 µM | TGI (SK-MEL-5 melanoma): 4.86 µM | GI50 (BT-549 breast): 2.2 µM | TGI (BT-549 breast): 6.47 µM | GI50 (SF-539 CNS): 3.3 µM | TGI (SF-539 CNS): 19.7 µM | GI50 (EKVX NSCLC): 2.93 µM | TGI (EKVX NSCLC): > 100 µM

C#CC1(O)CCC2[C@@H]3CCc4cc(Oc5nc(F)nc(-c6c7ccccc7c(SCC)n6CCC)n5)ccc4C3CC[C@@]21C (some centres undefined)
TGI (OVCAR-3 ovarian): > 100 µM | TGI (ACHN renal): > 100 µM | TGI (MOLT-4 leukemia): > 100 µM | TGI (SK-MEL-28 melanoma): > 100 µM | TGI (SK-MEL-5 melanoma): > 100 µM | TGI (SF-539 CNS): > 100 µM | TGI (EKVX NSCLC): > 100 µM

Cc1ccc(S(=O)(=O)OC(COC(=O)c2ccccc2)C(OS(=O)(=O)c2ccc(C)cc2)C(OS(=O)(=O)c2ccc(C)cc2)C(COC(=O)c2ccccc2)OS(=O)(=O)c2ccc(C)cc2)cc1 (centres undefined)
TGI (OVCAR-3 ovarian): > 100 µM | TGI (ACHN renal): > 100 µM | TGI (MOLT-4 leukemia): > 100 µM | TGI (SNB-75 CNS): 90 µM | TGI (SK-MEL-28 melanoma): > 100 µM | TGI (SK-MEL-5 melanoma): > 100 µM | TGI (SF-539 CNS): > 100 µM | TGI (EKVX NSCLC): > 100 µM

COC(=O)[C@@H](C)[C@H]1CC[C@@](C)(CCC2=C(C)CC3C=C(C)CCC3C2(C)C)OO1 (some centres undefined)
TGI (OVCAR-3 ovarian): 3.42 µM | TGI (ACHN renal): 2.87 µM | TGI (MOLT-4 leukemia): 2.75 µM | TGI (SNB-75 CNS): 2.94 µM | TGI (SK-MEL-28 melanoma): 3.22 µM | TGI (SK-MEL-5 melanoma): 2.87 µM | TGI (SF-539 CNS): 3.27 µM | TGI (EKVX NSCLC): 3.03 µM

C1CN(P2(N3CC3)=NP(N3CC3)(N3CC3)=NP(N3CC3)(N3CC3)=N2)CCO1 (centres undefined)
TGI (OVCAR-3 ovarian): > 100 µM | TGI (ACHN renal): > 100 µM | TGI (MOLT-4 leukemia): > 100 µM | TGI (SNB-75 CNS): > 100 µM | TGI (SK-MEL-28 melanoma): > 100 µM | TGI (SK-MEL-5 melanoma): > 100 µM | TGI (SF-539 CNS): > 100 µM | TGI (EKVX NSCLC): > 100 µM

C=CCC1(C(=O)OC(C)(C)C)C(OC)=C(C(=O)OC(C)(C)C)C2C1C(C(=O)OC(C)(C)C)=C(OC)C2(CC=C)C(=O)OC(C)(C)C (centres undefined)
TGI (OVCAR-3 ovarian): > 100 µM | TGI (ACHN renal): > 100 µM | TGI (MOLT-4 leukemia): > 100 µM | TGI (SNB-75 CNS): > 100 µM | TGI (SK-MEL-28 melanoma): > 100 µM | TGI (SF-539 CNS): > 100 µM | TGI (EKVX NSCLC): > 100 µM

COc1ccc(/C(C#N)=C/c2cc(OC)c(OC)c(OC)c2)cc1
GI50 (OVCAR-3 ovarian): 33.8 µM | TGI (OVCAR-3 ovarian): > 100 µM | GI50 (ACHN renal): 23.5 µM | TGI (ACHN renal): > 100 µM | GI50 (MOLT-4 leukemia): 20.2 µM | TGI (MOLT-4 leukemia): 66 µM | GI50 (SNB-75 CNS): 11.6 µM | TGI (SNB-75 CNS): 87.7 µM | GI50 (MDA-MB-435): 2.19 µM | TGI (MDA-MB-435): 12.5 µM | GI50 (SK-MEL-28 melanoma): 27.4 µM | TGI (SK-MEL-28 melanoma): > 100 µM | GI50 (SK-MEL-5 melanoma): 10.7 µM | TGI (SK-MEL-5 melanoma): 28.7 µM | GI50 (BT-549 breast): 21.1 µM | TGI (BT-549 breast): 70 µM | GI50 (SF-539 CNS): 16.1 µM | TGI (SF-539 CNS): 58 µM

COC(=O)C1CC(OC(C)=O)C=C2C(=O)CCC21 (centres undefined)
TGI (OVCAR-3 ovarian): 31.2 µM | TGI (ACHN renal): 46.3 µM | TGI (MOLT-4 leukemia): 40 µM | TGI (SNB-75 CNS): 48 µM | TGI (SK-MEL-28 melanoma): 33.8 µM | TGI (SK-MEL-5 melanoma): 67.9 µM | TGI (SF-539 CNS): 50.6 µM

Cc1ccc(NC(=O)/C(Cc2cc(=O)oc3cc(O)ccc23)=N\NC(C)(C)C)cc1C
TGI (OVCAR-3 ovarian): > 100 µM | TGI (ACHN renal): > 100 µM | TGI (MOLT-4 leukemia): > 100 µM | TGI (MDA-MB-435): > 100 µM | TGI (SK-MEL-28 melanoma): > 100 µM | TGI (SK-MEL-5 melanoma): > 100 µM | TGI (BT-549 breast): > 100 µM | TGI (SF-539 CNS): > 100 µM

CC(C)(C)N/N=C(\C(=O)Nc1nc(=S)[nH][nH]1)C1C(=O)Nc2ccccc2S1=O (centres undefined)
TGI (OVCAR-3 ovarian): > 100 µM | TGI (ACHN renal): > 100 µM | TGI (MOLT-4 leukemia): > 100 µM | TGI (SNB-75 CNS): > 100 µM | TGI (SK-MEL-28 melanoma): > 100 µM | TGI (SK-MEL-5 melanoma): > 100 µM | TGI (SF-539 CNS): > 100 µM | TGI (EKVX NSCLC): > 100 µM

CCOC(=O)C(Cc1ccccc1)NC(=O)c1[nH]cnc1/N=N/N(C)C (centres undefined)
TGI (OVCAR-3 ovarian): > 100 µM | TGI (ACHN renal): > 100 µM | TGI (MOLT-4 leukemia): > 100 µM | TGI (SNB-75 CNS): > 100 µM | TGI (SK-MEL-28 melanoma): > 100 µM | TGI (SK-MEL-5 melanoma): > 100 µM | TGI (SF-539 CNS): > 100 µM | TGI (EKVX NSCLC): > 100 µM

COc1cc(NS(C)(=O)=O)ccc1NCc1c2ccccc2nc2ccccc12
TGI (OVCAR-3 ovarian): > 100 µM | TGI (ACHN renal): > 100 µM | TGI (MOLT-4 leukemia): 35 µM | TGI (SNB-75 CNS): > 100 µM | TGI (SK-MEL-28 melanoma): > 100 µM | TGI (SF-539 CNS): 65.2 µM | TGI (EKVX NSCLC): > 100 µM

Cn1nc(C(F)(F)F)c(-c2cc(C(F)(F)F)cc(C(F)(F)F)c2)c1-c1ccc(OCc2ccc(Cl)cc2)cc1O
GI50 (OVCAR-3 ovarian): 2.27 µM | TGI (OVCAR-3 ovarian): 10.7 µM | GI50 (ACHN renal): 2.54 µM | TGI (ACHN renal): 10 µM | GI50 (MOLT-4 leukemia): 2.61 µM | TGI (MOLT-4 leukemia): 11 µM | GI50 (SNB-75 CNS): 2.17 µM | TGI (SNB-75 CNS): 10.5 µM | GI50 (MDA-MB-435): 2.54 µM | TGI (MDA-MB-435): 8.03 µM | GI50 (SK-MEL-28 melanoma): 2.32 µM | TGI (SK-MEL-28 melanoma): 10.7 µM | GI50 (SK-MEL-5 melanoma): 1.45 µM | TGI (SK-MEL-5 melanoma): 3.11 µM | GI50 (BT-549 breast): 1.67 µM | TGI (BT-549 breast): 3.33 µM | GI50 (SF-539 CNS): 2.1 µM | TGI (SF-539 CNS): 5.94 µM

CC1=NOC(=O)/C1=C/c1ccc([N+](=O)[O-])cc1
TGI (OVCAR-3 ovarian): > 100 µM | TGI (ACHN renal): > 100 µM | TGI (MOLT-4 leukemia): > 100 µM | TGI (SNB-75 CNS): > 100 µM | TGI (SK-MEL-28 melanoma): > 100 µM | TGI (SK-MEL-5 melanoma): > 100 µM | TGI (SF-539 CNS): > 100 µM | TGI (EKVX NSCLC): > 100 µM

O=S(=O)(N=NC=C1c2ccccc2N(O)c2ccccc21)c1ccc(Cl)cc1
TGI (OVCAR-3 ovarian): > 100 µM | TGI (ACHN renal): > 100 µM | TGI (MOLT-4 leukemia): > 100 µM | TGI (SNB-75 CNS): 78.2 µM | TGI (SK-MEL-28 melanoma): > 100 µM | TGI (SK-MEL-5 melanoma): > 100 µM | TGI (EKVX NSCLC): > 100 µM

CCOc1ccc(NCC2CC/C(=C\c3ccccc3OC)C2=O)cc1 (centres undefined)
TGI (OVCAR-3 ovarian): 17.1 µM | TGI (ACHN renal): 27.8 µM | TGI (MOLT-4 leukemia): 20.9 µM | TGI (SNB-75 CNS): 31.1 µM | TGI (SK-MEL-28 melanoma): 24.1 µM | TGI (SK-MEL-5 melanoma): 30.3 µM | TGI (SF-539 CNS): 23.9 µM | TGI (EKVX NSCLC): 31.9 µM

O=C(C#Cc1ccccc1)C1=Cc2ccccc2OC1
TGI (OVCAR-3 ovarian): 5.35 µM | TGI (ACHN renal): 5.26 µM | TGI (MOLT-4 leukemia): > 100 µM | TGI (SNB-75 CNS): 13.3 µM | TGI (MDA-MB-435): 12.5 µM | TGI (SK-MEL-28 melanoma): > 65.7 µM | TGI (SK-MEL-5 melanoma): 4.89 µM | TGI (BT-549 breast): 5.16 µM | TGI (EKVX NSCLC): 6.12 µM

CC(C(=O)c1ccccc1)C1(O)C(=O)Nc2ccc(Cl)cc21 (centres undefined)
TGI (OVCAR-3 ovarian): > 100 µM | TGI (ACHN renal): > 100 µM | TGI (SNB-75 CNS): > 100 µM | TGI (SK-MEL-28 melanoma): > 100 µM | TGI (SF-539 CNS): > 100 µM | TGI (EKVX NSCLC): > 100 µM

N#CC(C#N)=Cc1ccc(CP(=O)(O)O)cc1
TGI (OVCAR-3 ovarian): > 100 µM | TGI (ACHN renal): > 100 µM | TGI (MOLT-4 leukemia): > 100 µM | TGI (SK-MEL-28 melanoma): > 100 µM | TGI (SK-MEL-5 melanoma): > 100 µM | TGI (SF-539 CNS): > 100 µM | TGI (EKVX NSCLC): > 100 µM

Cc1cc(C)c(C(=O)O)c(SSc2cc(C)cc(C)c2C(=O)O)c1
TGI (ACHN renal): > 100 µM | TGI (MOLT-4 leukemia): > 100 µM | TGI (SK-MEL-28 melanoma): > 100 µM | TGI (SK-MEL-5 melanoma): > 100 µM | TGI (SF-539 CNS): > 100 µM | TGI (EKVX NSCLC): > 100 µM

— PubChem BioAssay (NCI)
